Results taken from patent publication US12213959B2, “Use of 3-O-sulfamoyloxy-7β-methyl-d-homo-6-oxaestra-1,3,5(10),8(9)-tetraen-17a-one to treat breast cancer” (priority 2018, dated 2025).
Where “and” joins values, the source holds several entries; their conditions need not be identical. Equal entries are not always repeated. Marks after values point to notes of the source that are not given here.

Legend:
[1] = system: breast tumours in FBV/N female mice, transgenic for HER-2/neu; test: Antitumour activity on breast tumours of HER-2/neu transgenic mice; type: in vivo; conditions: for Relative change of the average total volume of tumours to that of Day −1 (M): medicament 100.0 mg/kg daily i.g.
Procedure: The study was carried out on female FVB mice transgenic for HER-2/neu of the conventional category, the strain being obtained from the mouse bank Charles River Laboratories (Italy).
Duration of the administration course was 27-28 days.
The control groups were given the olive oil (placebo).
The macroscopically detectable tumor nodes were measured in the animals once per week during the weighing process.

[2] = system: MDA-MB-231 cell line of triple negative breast cancer; test: Cell growth inhibition on MDA-MB-231; type: cell-based; conditions: Homo sapiens
[3] = system: Normal human dermal fibroblasts (HDF); test: Proliferative activity of normal human skin fibroblasts (negative control); type: cell-based; conditions: 20 μg/ml
Procedure: (§1) The study analysis was carried out on an passaged MCF-7 human cells culture culture (breast adenocarcinoma). Normal human dermal fibroblasts (HDF) of early passages were used as a negative control.
(§2) The cells were cultivated in Carrel vials in DMEM/F12 medium (Biolot) with 1.0% of antibiotic-free fetal bovine embryonic serum (Biolot) added in the 5% CO2 atmosphere, at 37° C.
(§3) The cells were seeded on Carrel vials at 50×10^4 cells per flask. To study the proliferative activity of the cells under conditions of sulfatase inhibition, 24 hours after seeding the culture medium […], and then these tumor cell lines were incubated for various periods of time (24 to 72 hrs). The inhibitor was dissolved in DMSO. […] To exclude the cytotoxic effect of DMSO, a control sample comprising DMSO without sulfatase inhibitor was prepared.
(§4) To exclude nonspecific detrimental effects of the compounds, normal human skin fibroblasts were used. Then the cells were detached with the versene-trypsin solution (Biolot), plated onto Carrel vials containing a fresh complete culture medium. The cells were counted when untreated control cells reached the maximum cell density per unit of surface area of a culture flask (monolayer), and their number was set as 100%. The proliferative activity of all of the studied cell cultures exposed to sulfatase inhibitors was determined in triplicate.

[4] = system: MCF-7 human cells culture (breast adenocarcinoma); test: Proliferative activity of MCF-7 cells; type: cell-based; conditions: 20 μg/ml
Procedure: as §1, §2, §3, §4

[5] = system: uterine body; test: Hormonal effects on the uterine body (uterine weight); type: in vivo, mice; conditions: for Uterine weight: end of observation
Procedure: The hormonal effects of the medicament on the uterine body was analyzed by comparing the uterine weight without uterine horns at the end of the observation period (Table 13).

[6] = medicament 20 mg/kg, vs Control-2, Day 0
[7] = medicament 20 mg/kg, vs Control-2, Day 7
[8] = medicament 20 mg/kg, vs Control-2, Day 14
[9] = medicament 20 mg/kg, vs Control-2, Day 21
[10] = medicament 20 mg/kg, vs Control-2, Day 28
[11] = medicament 100 mg/kg daily i.g., Day 0
[12] = medicament 100 mg/kg daily i.g., Day 7
[13] = medicament 100 mg/kg daily i.g., Day 14
[14] = medicament 100 mg/kg daily i.g., Day 21
[15] = medicament 100 mg/kg daily i.g., Day 28
[16] = medicament 100 mg/kg daily i.g., Day 28 vs Day 0
[17] = medicament 100 mg/kg, end of observation
[18] = medicament 100 mg/kg, vs Control-2, Day 0
[19] = medicament 100 mg/kg, vs Control-2, Day 7
[20] = medicament 100 mg/kg, vs Control-2, Day 14
[21] = medicament 100 mg/kg, vs Control-2, Day 21
[22] = medicament 100 mg/kg, vs Control-2, Day 28

With `C[C@H]1Oc2cc(OS(N)(=O)=O)ccc2C2=C1[C@@H]1CCCC(=O)[C@@]1(C)CC2` [medicament, 3-O-sulfamoyloxy-7β-methyl-O-homo-6-oxaestra-1,3,5(10),8(9)-tetraen] the “TGI (average total tumour volume)” value [1, 6] was −116%, the “TGI (average tumor volume)” value [1, 6] was −125% and the “TGI (average total tumour volume)” value [1, 7] was −114%. The “TGI (average tumor volume)” value [1, 7] was −115%, the “TGI (average total tumour volume)” value [1, 8] was −45% and the “TGI (average tumor volume)” value [1, 8] was −54%. The “TGI (average total tumour volume)” value [1, 9] was −19%, the “TGI (average tumor volume)” value [1, 9] was −26% and the “TGI (average total tumour volume)” value [1, 10] was 12%. For the same compound, the “TGI (average tumor volume)” value [1, 10] was 10%, the “Average volume of new tumours at the end of the observation period” value ([1]; medicament 100 mg/kg) was 0.18±0.04 cm^3 and 0.18 cm^3 and the “Average total volume of tumours in mice (M)” value [1, 11] was 0.28 cm^3. For the same compound, the “Average volume of tumors existing at the beginning of the experiment (M)” value (shortened to “Average volume of tumors existing”) [1, 11] was 0.13 cm^3, the “Relative change of the average total volume of tumours to that of Day −1 (M)” value (“Relative change … (M)” for short) ([1]; Day 0) was 0% and the “Average total volume of tumours in mice (M)” value [1, 12] was 0.41 cm^3. For the same compound, the “Average volume of tumors existing” value [1, 12] was 0.19 cm^3, the “Relative change … (M)” value ([1]; Day 7) was 42% and the “Average total volume of tumours in mice (M)” value [1, 13] was 0.59 cm^3. The “Average volume of tumors existing” value [1, 13] was 0.27 cm^3, the “Relative change … (M)” value ([1]; Day 14) was 89* % and the “Average total volume of tumours in mice (M)” value [1, 14] was 0.81 cm^3. For the same compound, the “Average volume of tumors existing” value [1, 14] was 0.37 cm^3, the “Relative change … (M)” value ([1]; Day 21) was 177*** % and the “Average total volume of tumours in mice (M)” value [1, 15] was 0.97* cm^3. The “Average volume of tumors existing” value [1, 15] was 0.44 cm^3, the “Relative change … (M)” value ([1]; Day 28) was 269*** % and the “Average total tumour volume, % of change to the initial value” [1, 16] was 246%. For the same compound, the “Average tumor volume, % of change to the initial value” [1, 16] was 238%, the “Absolute number of new tumours” value [1, 17] was 19 and the “frequency of stabilisations of tumours present at initiation of treatment” value [1, 17] was 9%. For the same compound, the “volume of new tumours, less than the control (Control-2) value” [1, 17] was 36%, the “TGI (average total tumour volume)” value [1, 18] was −47% and the “TGI (average tumor volume)” value [1, 18] was −63%. For the same compound, the “TGI (average total tumour volume)” value [1, 19] was −41%, the “TGI (average tumor volume)” value [1, 19] was −46% and the “TGI (average total tumour volume)” value [1, 20] was 9%. For the same compound, the “TGI (average tumor volume)” value [1, 20] was 4%, the “TGI (average total tumour volume)” value [1, 21] was 18% and the “TGI (average tumor volume)” value [1, 21] was 14%. For the same compound, the “TGI (average total tumour volume)” value [1, 22] was 30%, the “TGI (average tumor volume)” value [1, 22] was 28% and the “relative change in the total volume of tumours versus control groups” value ([1]; medicament 20 and 100 mg/kg) was “statistically significantly lower”. For the same compound, the IC50 [2] was 4.8 µM, the “growth of human skin fibroblasts” value [3] was “does not influence the growth” and the “proliferation of MCF-7 tumour cells” value [4] was “completely blocks”. The “uterine weight differences as compared to the control group” value ([5]; dose range from 2.0 to 100 mg/kg) was “No statistically significant differences”, the Uterine weight ([5]; medicament 2 mg/kg, All mice) was 37 ± 6 MI and the Uterine weight ([5]; medicament 2 mg/kg, estrous cycle phase D) was 24 ± 7 MI. The Uterine weight ([5]; medicament 2 mg/kg, estrous cycle phase E) was 53 ± 3 MI, the Uterine weight ([5]; medicament 20 mg/kg, All mice) was 50 ± 4 MI and the Uterine weight ([5]; medicament 20 mg/kg, estrous cycle phase D) was 45 ± 13 MI. The Uterine weight ([5]; medicament 20 mg/kg, estrous cycle phase E) was 53 ± 4 MI, the Uterine weight ([5]; medicament 100 mg/kg, All mice) was 52 ± 5 MI and the Uterine weight ([5]; medicament 100 mg/kg, estrous cycle phase D) was 34 ± 13 MI. The Uterine weight ([5]; medicament 100 mg/kg, estrous cycle phase E) was 56 ± 5 MI and the uterotropic activity ([5]; mouse, in vivo) was “no uterotropic activity”.
